Assay results taken from patent US7994209B2, “3-phenoxymethylpyrrolidine compounds” (Theravance, Inc., priority 2009, dated 2011).
pKi: −log10 of the molar value.

How the values were obtained:
[1] = biological target: hSERT (Homo sapiens, UniProt P31645); test: hSERT membrane radioligand binding assay (3H-citalopram), Assay 1; settings: SERT pKi, hSERT HEK-293 membranes, 1.0 nM 3H-citalopram; values given as lower bounds
[2] = biological target: hNET (Homo sapiens, UniProt P23975); test: hNET membrane radioligand binding assay (3H-nisoxetine), Assay 1
hNET, sequence (P23975 whole entry): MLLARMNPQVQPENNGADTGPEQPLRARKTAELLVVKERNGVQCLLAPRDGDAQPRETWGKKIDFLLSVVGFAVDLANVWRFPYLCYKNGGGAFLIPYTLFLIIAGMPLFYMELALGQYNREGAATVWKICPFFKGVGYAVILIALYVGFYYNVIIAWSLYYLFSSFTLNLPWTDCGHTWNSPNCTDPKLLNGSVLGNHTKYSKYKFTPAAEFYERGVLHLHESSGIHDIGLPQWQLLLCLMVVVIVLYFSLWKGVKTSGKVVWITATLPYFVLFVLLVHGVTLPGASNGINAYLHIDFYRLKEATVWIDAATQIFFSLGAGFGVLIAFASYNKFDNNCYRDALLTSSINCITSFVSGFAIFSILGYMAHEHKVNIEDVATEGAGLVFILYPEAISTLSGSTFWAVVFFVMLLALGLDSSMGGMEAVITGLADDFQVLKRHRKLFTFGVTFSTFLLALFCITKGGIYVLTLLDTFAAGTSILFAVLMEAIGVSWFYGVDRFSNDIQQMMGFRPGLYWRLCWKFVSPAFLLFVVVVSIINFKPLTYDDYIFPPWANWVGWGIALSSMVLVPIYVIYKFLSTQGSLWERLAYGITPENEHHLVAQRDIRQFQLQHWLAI

hSERT, sequence (P31645 whole entry): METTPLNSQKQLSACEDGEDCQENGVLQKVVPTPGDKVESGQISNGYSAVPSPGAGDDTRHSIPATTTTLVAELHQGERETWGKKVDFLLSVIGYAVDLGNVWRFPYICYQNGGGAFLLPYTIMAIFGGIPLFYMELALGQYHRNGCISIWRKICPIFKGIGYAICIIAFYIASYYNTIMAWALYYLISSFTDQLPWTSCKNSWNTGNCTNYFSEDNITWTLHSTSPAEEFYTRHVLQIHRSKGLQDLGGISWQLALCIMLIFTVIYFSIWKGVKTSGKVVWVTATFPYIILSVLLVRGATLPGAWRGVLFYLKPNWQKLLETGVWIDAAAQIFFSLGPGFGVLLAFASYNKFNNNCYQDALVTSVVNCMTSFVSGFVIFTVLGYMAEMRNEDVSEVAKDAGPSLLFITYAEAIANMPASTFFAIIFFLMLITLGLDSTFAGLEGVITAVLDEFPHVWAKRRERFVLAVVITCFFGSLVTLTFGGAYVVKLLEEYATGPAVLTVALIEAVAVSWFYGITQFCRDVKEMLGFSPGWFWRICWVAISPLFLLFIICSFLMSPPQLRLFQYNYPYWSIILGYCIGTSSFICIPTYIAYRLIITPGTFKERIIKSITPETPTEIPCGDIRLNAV

pKi [1]	pKi [2]	Compound
≥ 8.00	≥ 7.00	CC[C@@H](Oc1ccc(Cl)cc1)[C@@H]1CCNC1 [Example 2-3, (R)-3-[(R)-1-(4-Chlorophenoxy)propyl]pyrrolidine]
≥ 7.00	≥ 8.00	CC[C@H](Oc1cccc(F)c1)[C@H]1CCNC1 [Example 2-9, (S)-3-[(S)-1-(3-Fluorophenoxy)propyl]pyrrolidine]
≥ 7.00	≥ 7.00	CC[C@H](Oc1ccc(F)cc1)[C@H]1CCNC1 [Example 2-12, (S)-3-[(S)-1-(4-Fluorophenoxy)propyl]pyrrolidine]
≥ 8.00	≥ 7.00	CC[C@H](Oc1cccc(C(F)(F)F)c1)[C@H]1CCNC1 [Example 2-16, (S)-3-[(S)-1-(3-Trifluoromethylphenoxy)propyl]pyrrolidine]
≥ 8.00	≥ 7.00	CC[C@H](Oc1ccc(C(F)(F)F)cc1)[C@H]1CCNC1 [Example 2-17, (S)-3-[(S)-1-(4-Trifluoromethylphenoxy)propyl]pyrrolidine]
≥ 7.00	≥ 8.00	CC[C@@H](Oc1c(F)cccc1Cl)[C@H]1CCNC1 [Example 2-26, (S)-3-[(R)-1-(2-Chloro-6-fluorophenoxy)propyl]pyrrolidine]
≥ 8.00	≥ 7.00	CC[C@H](Oc1cccc(Cl)c1Cl)[C@@H]1CCNC1 [Example 2-30, (R)-3-[(S)-1-(2,3-Dichlorophenoxy)propyl]pyrrolidine]
≥ 8.00	≥ 7.00	CC[C@@H](Oc1ccc(Cl)cc1Cl)[C@@H]1CCNC1 [Example 2-33, (R)-3-[(R)-1-(2,4-Dichlorophenoxy)propyl]pyrrolidine]
≥ 7.00	≥ 7.00	CC[C@@H](Oc1cc(F)cc(F)c1Cl)[C@H]1CCNC1 [Example 2-36, (S)-3-[(R)-1-(2-Chloro-3,5-difluorophenoxy)propyl]pyrrolidine]
≥ 7.00	≥ 8.00	CC[C@H](Oc1ccccc1F)[C@H]1CCNC1 [Example 2-46, (S)-3-[(S)-1-(2-Fluorophenoxy)propyl]pyrrolidine]
≥ 7.00	≥ 8.00	CC[C@H](Oc1c(F)cccc1F)[C@H]1CCNC1 [Example 2-49, (S)-3-[(S)-1-(2,6-Difluorophenoxy)propyl]pyrrolidine]
≥ 8.00	≥ 7.00	CC[C@H](Oc1ccc(F)c(F)c1F)[C@H]1CCNC1 [Example 2-50, (S)-3-[(S)-1-(2,3,4-Trifluorophenoxy)propyl]pyrrolidine]
≥ 7.00	≥ 8.00	CC[C@@H](Oc1c(F)ccc(Cl)c1F)[C@H]1CCNC1 [Example 2-53, (S)-3-[(R)-1-(3-Chloro-2,6-difluorophenoxy)propyl]pyrrolidine]
≥ 7.00	≥ 8.00	CC[C@@H](Oc1c(Cl)ccc(C)c1F)[C@H]1CCNC1 [Example 2-54, (S)-3-[(R)-1-(6-Chloro-2-fluoro-3-methylphenoxy)propyl]pyrrolidine]
≥ 7.00	≥ 8.00	CC[C@H](Oc1c(F)c(F)cc(F)c1F)[C@H]1CCNC1 [Example 2-56, (S)-3-[(S)-1-(2,3,5,6-Tetrafluorophenoxy)propyl]pyrrolidine]
≥ 8.00	≥ 7.00	CC[C@@H](Oc1ccc(Cl)cc1C)[C@H]1CCNC1 [Example 2-59, (S)-3-[(R)-1-(4-Chloro-2-methylphenoxy)propyl]pyrrolidine]
≥ 8.00	≥ 7.00	CC[C@H](Oc1ccc(Cl)cc1C)[C@@H]1CCNC1 [Example 2-61, (R)-3-[(S)-1-(4-Chloro-2-methylphenoxy)propyl]pyrrolidine]
≥ 7.00	≥ 7.00	CC[C@@H](Oc1ccccc1C)[C@H]1CCNC1 [Example 2-63, (S)-3-((R)-1-o-Tolyloxypropyl)pyrrolidine]
≥ 7.00	≥ 8.00	CC[C@H](Oc1ccccc1OC)[C@H]1CCNC1 [Example 2-67, (S)-3-[(S)-1-(2-Methoxyphenoxy)propyl]pyrrolidine]
≥ 8.00	≥ 7.00	CC[C@H](Oc1cccc(Cl)c1C(F)(F)F)[C@@H]1CCNC1 [Example 2-73, (R)-3-[(S)-1-(3-Chloro-2-trifluoromethylphenoxy)propyl]pyrrolidine]
≥ 8.00	≥ 7.00	CCC[C@H](Oc1ccc(Cl)cc1)[C@@H]1CCNC1 [Example 4-3, (R)-3-[(S)-1-(4-Chlorophenoxy)butyl]pyrrolidine]
≥ 8.00	≥ 7.00	CCC[C@@H](Oc1ccc(Cl)cc1)[C@@H]1CCNC1 [Example 4-4, (R)-3-[(R)-1-(4-Chlorophenoxy)butyl]pyrrolidine]
≥ 8.00	≥ 7.00	CCC[C@H](Oc1cc(Cl)cc(Cl)c1)[C@@H]1CCNC1 [Example 4-8, (R)-3-[(S)-1-(3,5-Dichlorophenoxy)butyl]pyrrolidine]
≥ 7.00	≥ 7.00	CCC[C@H](Oc1ccccc1Cl)[C@@H]1CCNC1 [Example 4-21, (R)-3-[(S)-1-(2-Chlorophenoxy)butyl]pyrrolidine]

pKi [1]	pKi [2]	Compound
≥ 7.00	≥ 8.00	CCC[C@@H](Oc1ccccc1Cl)[C@@H]1CCNC1 [Example 4-22, (R)-3-[(R)-1-(2-Chlorophenoxy)butyl]pyrrolidine]
≥ 8.00	≥ 7.00	CCC[C@H](Oc1cccc(Cl)c1Cl)[C@@H]1CCNC1 [Example 4-24, (R)-3-[(S)-1-(2,3-Dichlorophenoxy)butyl]pyrrolidine]
≥ 8.00	≥ 7.00	CCC[C@@H](Oc1ccc(Cl)cc1Cl)[C@H]1CCNC1 [Example 4-29, (S)-3-[(R)-1-(2,4-Dichlorophenoxy)butyl]pyrrolidine]
≥ 8.00	≥ 7.00	CCC[C@H](Oc1ccc(Cl)cc1Cl)[C@@H]1CCNC1 [Example 4-30, (R)-3-[(S)-1-(2,4-Dichlorophenoxy)butyl]pyrrolidine]
≥ 8.00	≥ 7.00	CCC[C@@H](Oc1ccc(Cl)cc1Cl)[C@@H]1CCNC1 [Example 4-31, (R)-3-[(R)-1-(2,4-Dichlorophenoxy)butyl]pyrrolidine]
≥ 7.00	≥ 8.00	CCC[C@@H](Oc1c(Cl)cccc1Cl)[C@H]1CCNC1 [Example 4-34, (S)-3-[(R)-1-(2,6-Dichlorophenoxy)butyl]pyrrolidine]
≥ 7.00	≥ 7.00	CCC[C@H](Oc1c(Cl)cccc1Cl)[C@@H]1CCNC1 [Example 4-35, (R)-3-[(S)-1-(2,6-Dichlorophenoxy)butyl]pyrrolidine]
≥ 7.00	≥ 7.00	CCC[C@@H](Oc1c(Cl)cccc1Cl)[C@@H]1CCNC1 [Example 4-36, (R)-3-[(R)-1-(2,6-Dichlorophenoxy)butyl]pyrrolidine]
≥ 8.00	≥ 7.00	CCC[C@H](Oc1ccc(C)cc1Cl)[C@@H]1CCNC1 [Example 4-38, (R)-3-[(S)-1-(2-Chloro-4-methylphenoxy)butyl]pyrrolidine]
≥ 8.00	≥ 7.00	CCC[C@H](Oc1cccc(Cl)c1C)[C@@H]1CCNC1 [Example 4-56, (R)-3-[(S)-1-(3-Chloro-2-methylphenoxy)butyl]pyrrolidine]
≥ 8.00	≥ 8.00	CCC[C@H](Oc1ccc(Cl)cc1C)[C@@H]1CCNC1 [Example 4-59, (R)-3-[(S)-1-(4-Chloro-2-methylphenoxy)butyl]pyrrolidine]
≥ 8.00	≥ 7.00	CCC[C@@H](Oc1ccc(Cl)cc1C)[C@H]1CCNC1 [Example 4-60, (S)-3-[(R)-1-(4-Chloro-2-methylphenoxy)butyl]pyrrolidine]
≥ 8.00	≥ 8.00	CCC[C@H](Oc1ccc(Cl)cc1C(F)(F)F)[C@H]1CCNC1 [Example 4-64, (S)-3-[(S)-1-(4-Chloro-2-trifluoromethylphenoxy)butyl]pyrrolidine]
≥ 7.00	≥ 7.00	CCC[C@@H](Oc1ccc(Cl)cc1C(F)(F)F)[C@H]1CCNC1 [Example 4-65, (S)-3-[(R)-1-(4-Chloro-2-trifluoromethylphenoxy)butyl]pyrrolidine]
≥ 8.00	≥ 7.00	CCC[C@H](Oc1ccc(Cl)cc1C(F)(F)F)[C@@H]1CCNC1 [Example 4-66, (R)-3-[(S)-1-(4-Chloro-2-trifluoromethylphenoxy)butyl]pyrrolidine]
≥ 8.00	≥ 7.00	CCC[C@@H](Oc1ccc(Cl)cc1C(F)(F)F)[C@@H]1CCNC1 [Example 4-67, (R)-3-[(R)-1-(4-Chloro-2-trifluoromethylphenoxy)butyl]pyrrolidine]
≥ 8.00	≥ 8.00	CCC[C@H](Oc1cccc(Cl)c1C(F)(F)F)[C@H]1CCNC1 [Example 4-68, (S)-3-[(S)-1-(3-Chloro-2-trifluoromethylphenoxy)butyl]pyrrolidine]
≥ 8.00	≥ 7.00	CCC[C@@H](Oc1cccc(Cl)c1C(F)(F)F)[C@H]1CCNC1 [Example 4-69, (S)-3-[(R)-1-(3-Chloro-2-trifluoromethylphenoxy)butyl]pyrrolidine]
≥ 8.00	≥ 7.00	CCC[C@H](Oc1cccc(Cl)c1C(F)(F)F)[C@@H]1CCNC1 [Example 4-70, (R)-3-[(S)-1-(3-Chloro-2-trifluoromethylphenoxy)butyl]pyrrolidine]
≥ 7.00	≥ 8.00	CC(C)[C@H](Oc1ccccc1F)[C@H]1CCNC1 [Example 6-1, (S)-3-[(S)-1-(2-Fluorophenoxy)-2-methylpropyl]pyrrolidine]
≥ 7.00	≥ 7.00	CC(C)C(Oc1ccccc1F)C1CCNC1 (stereo not shown) [Example 6-2, 3-[1-(2-Fluorophenoxy)-2-methylpropyl]pyrrolidine]
≥ 8.00	≥ 7.00	CC(C)[C@@H](Oc1ccc(Cl)cc1Cl)[C@H]1CCNC1 [Example 6-22, (S)-3-[(R)-1-(2,4-Dichlorophenoxy)-2-methylpropyl]pyrrolidine]
≥ 7.00	≥ 8.00	CC(C)C(Oc1c(Cl)cccc1Cl)C1CCNC1 (stereo not shown) [Example 6-27, 3-[1-(2,6-Dichlorophenoxy)-2-methylpropyl]pyrrolidine]
